Results: patent publication US20050107432A1, “Sigma receptor binder containing indanone derivative” (priority 2002, published 2005)
Counter-ions that a name gives are not always drawn.

target: Sigma receptor; assay: Sigma receptor binding assay (3H-DTG, guinea pig brain crude membrane fraction); conditions: inhibition of 3H-DTG binding to guinea pig brain crude membrane fraction, 25° C., 1 hour
Protocol: Sigma Receptor Binding Assay
(1) Preparation of Receptor
Ten male guinea pigs (Crj, Hartley, from Charles River Japan, Inc.) (body weight: 234 g to 260 g) were decapitated, exsanguinated and died. The brain was immediately removed, homogenized with ten volumes of 50 mM Tris-HCl (pH 7.4) using a Teflon homogenizer and was centrifuged at a rate of 50000× g at 4° C. for 20 minutes. The washing procedure was repeated once more under the same conditions, and the resulting crude membrane fraction was subjected to the assay.
The filter paper was transferred to a vial for radioactivity measurement, mixed with 5 mL of a liquid scintillation cocktail (Atomlight, from PACKARD), and the radioactivity on the filter was determined by a liquid scintillation counter (Model 1500, from PACKARD) for 2 minutes. The specific binding and the non-specific binding in the absence of the test compound were determined in the same way as above except for using 50% DMSO solution instead of the test compound and using a 100 μM Haloperidol solution instead of the test compound, respectively.
(3) Determination of Inhibition
The inhibitions of the test compound at individual concentrations were determined from the ratio of the specific binding in the presence of the test compound to the specific binding in the absence thereof. The dose-response curve was regressed according to a logit-log model in which the ratio of the specific binding in the presence of the test compound to the specific binding in the absence thereof was subjected to logit transformation and plotted against the common logarithm value of each concentration.

**Q.** CCOc1cc2c(cc1OCC)C(=O)C(CC1CCN(Cc3ccc(Cl)cc3)CC1)C2 (stereo not shown) [Example 13, 1-(4-chlorobenzyl)-4-[(5,6-diethoxy-1-indanon)-2-yl]methylpiperidine hydrochloride] was tested. Which IC50 did it give?
**A.** 1.6 nM

**Q.** With O=C1c2ccc(C3CCCCC3)cc2CC1CC1CCN(Cc2ccccc2)CC1 (stereo not shown) [Example 22, hydrochloride] as the compound, how does the IC50 read?
**A.** 1.3 nM

**Q.** For Cl.O=C1c2ccccc2CC1CC1CCN(Cc2ccccc2)CC1 (stereo not shown) [Example 27, 1-Benzyl-4-[(1-indanon)-2-yl]methylpiperidine hydrochloride], which IC50 is on record?
**A.** 1.7 nM

**Q.** How did the IC50 turn out when COc1ccc2c(c1)CC(CC1CCN(Cc3ccccc3)CC1)C2=O.Cl (stereo not shown) [Example 28, 1-Benzyl-4-[(5-methoxy-1-indanon)-2-yl]methylpiperidine hydrochloride] was run?
**A.** 2.3 nM

**Q.** For CCOc1cc2c(cc1OCC)C(=O)C(CC1CCN(Cc3ccccc3)CC1)C2.Cl (stereo not shown) [Example 30, 1-Benzyl-4-[(5,6-diethoxy-1-indanon)-2-yl]methylpiperidine hydrochloride], which IC50 is on record?
**A.** 3.7 nM

**Q.** For COc1cc2c(cc1OC)C(=O)C(CCCC1CCN(Cc3ccccc3)CC1)C2.Cl (stereo not shown) [Example 33, 1-Benzyl-4-[3-[(5,6-dimethoxy-1-indanon)-2-yl]propyl]piperidine hydrochloride], which IC50 is on record?
**A.** 7.6 nM

**Q.** Which IC50 does the source give for CCOc1cc2c(cc1OCC)C(=O)C(F)(CC1CCN(Cc3cccc(F)c3)CC1)C2 (stereo not shown) [Example 41, 1-(3-fluorobenzyl)-4-[(5,6-diethoxy-2-fluoro-1-indanon)-2-yl]methylpiperidine hydrochloride] here?
**A.** 3 nM

**Q.** With CCOc1cc2c(cc1OCC)C(=O)C(F)(CC1CCN(Cc3ccccc3Cl)CC1)C2 (stereo not shown) [Example 43, 1-(2-chlorobenzyl)-4-[(5,6-diethoxy-2-fluoro-1-indanon)-2-yl]methylpiperidine hydrochloride] as the compound, how does the IC50 read?
**A.** 1.5 nM

**Q.** For CCOc1cc2c(cc1OCC)C(=O)C(F)(CC1CCN(Cc3ccc(C)cc3)CC1)C2 (stereo not shown) [Example 48, 1-(4-methylbenzyl)-4-[(5,6-diethoxy-2-fluoro-1-indanon)-2-yl]methylpiperidine hydrochloride], which IC50 is on record?
**A.** 2.8 nM

**Q.** Which IC50 does the source give for CCOc1cc2c(cc1OCC)C(=O)C(F)(CC1CCN(CC3CCCCCC3)CC1)C2 (stereo not shown) [Example 51, 1-cycloheptylmethyl-4-[(5,6-diethoxy-2-fluoro-1-indanon)-2-yl]methylpiperidine hydrochloride] here?
**A.** 1.1 nM

**Q.** For CCOc1cc2c(cc1OCC)C(=O)C(F)(CC1CCN(CC3CCCCCCC3)CC1)C2 (stereo not shown) [Example 52, 1-cyclooctylmethyl-4-[(5,6-diethoxy-2-fluoro-1-indanon)-2-yl]methylpiperidine hydrochloride], which IC50 is on record?
**A.** 1.1 nM

**Q.** For CCCOc1cc2c(cc1OCCC)C(=O)C(F)(CC1CCN(Cc3ccccc3)CC1)C2.Cl (stereo not shown) [Example 58, 1-Benzyl-4-[[5,6-di(1-propyloxy)-2-fluoro-1-indanon]-2-yl]methylpiperidine hydrochloride], which IC50 is on record?
**A.** 1.3 nM

same assay, conditions: result in words, no value given

**Q.** With COc1cc2c(cc1OC)C(=O)C(=CC1CCN(Cc3ccccc3)CC1)C2.Cl [Example 25, 1-Benzyl-4-[(5,6-dimethoxy-1-indanon)-2-ylidene]methylpiperidine hydrochloride] as the compound, how does the “sigma receptor binding action” value read?
**A.** found to have a sigma receptor binding action

**Q.** For CCOc1cc2c(cc1OCC)C(=O)C(=CC1CCN(Cc3ccccc3)CC1)C2.Cl [Example 26, 1-Benzyl-4-[(5,6-diethoxy-1-indanon)-2-ylidene]methylpiperidine hydrochloride], which “sigma receptor binding action” value is on record?
**A.** found to have a sigma receptor binding action

**Q.** How did the “sigma receptor binding action” value turn out when Cl.O=C1c2ccccc2CC1CC1CCN(Cc2ccccc2)CC1 (stereo not shown) [Example 27, 1-Benzyl-4-[(1-indanon)-2-yl]methylpiperidine hydrochloride] was run?
**A.** found to have a sigma receptor binding action

**Q.** Which “sigma receptor binding action” value does the source give for COc1ccc2c(c1)CC(CC1CCN(Cc3ccccc3)CC1)C2=O.Cl (stereo not shown) [Example 28, 1-Benzyl-4-[(5-methoxy-1-indanon)-2-yl]methylpiperidine hydrochloride] here?
**A.** found to have a sigma receptor binding action

**Q.** Which “sigma receptor binding action” value does the source give for CCOc1cc2c(cc1OC)C(=O)C(CC1CCN(Cc3ccccc3)CC1)C2.Cl (stereo not shown) [Example 29, 1-Benzyl-4-[(5-ethoxy-6-methoxy-1-indanon)-2-yl]methylpiperidine hydrochloride] here?
**A.** found to have a sigma receptor binding action

**Q.** CCOc1cc2c(cc1OCC)C(=O)C(CC1CCN(Cc3ccccc3)CC1)C2.Cl (stereo not shown) [Example 30, 1-Benzyl-4-[(5,6-diethoxy-1-indanon)-2-yl]methylpiperidine hydrochloride] was tested. Which “sigma receptor binding action” value did it give?
**A.** found to have a sigma receptor binding action

**Q.** How did the “sigma receptor binding action” value turn out when CCCOc1cc2c(cc1OCCC)C(=O)C(CC1CCN(Cc3ccccc3)CC1)C2.Cl (stereo not shown) [Example 31, 1-Benzyl-4-[[5,6-di(1-propyloxy)-1-indanon)-2-yl]methylpiperidine hydrochloride] was run?
**A.** found to have a sigma receptor binding action

**Q.** For COc1cc2c(cc1OC)C(=O)C(CCC1CCN(Cc3ccccc3)CC1)C2.Cl (stereo not shown) [Example 32, 1-Benzyl-4-[2-[(5,6-dimethoxy-1-indanon)-2-yl]ethyl]piperidine hydrochloride], which “sigma receptor binding action” value is on record?
**A.** found to have a sigma receptor binding action

**Q.** COc1cc2c(cc1OC)C(=O)C(CCCC1CCN(Cc3ccccc3)CC1)C2.Cl (stereo not shown) [Example 33, 1-Benzyl-4-[3-[(5,6-dimethoxy-1-indanon)-2-yl]propyl]piperidine hydrochloride] was tested. Which “sigma receptor binding action” value did it give?
**A.** found to have a sigma receptor binding action

**Q.** COc1cc2c(cc1OC)C(=O)C(CC1CCN(Cc3cccc(F)c3)CC1)C2.Cl (stereo not shown) [Example 34, 1-(3-Fluorobenzyl)-4-[(5,6-dimethoxy-1-indanon)-2-yl]methylpiperidine hydrochloride] was tested. Which “sigma receptor binding action” value did it give?
**A.** found to have a sigma receptor binding action

**Q.** How did the “sigma receptor binding action” value turn out when COc1cc2c(cc1OC)C(=O)C(CC1CCN(Cc3cccc(C)c3)CC1)C2.Cl (stereo not shown) [Example 35, 1-(3-Methylbenzyl)-4-[(5,6-dimethoxy-1-indanon)-2-yl]methylpiperidine hydrochloride] was run?
**A.** found to have a sigma receptor binding action

**Q.** COc1cc2c(cc1OC)C(=O)C(CC1CCN(CC3CCCCC3)CC1)C2.Cl (stereo not shown) [Example 36, 1-Cyclohexylmethyl-4-[(5,6-dimethoxy-1-indanon)-2-yl]methylpiperidine hydrochloride] was tested. Which “sigma receptor binding action” value did it give?
**A.** found to have a sigma receptor binding action

**Q.** Which “sigma receptor binding action” value does the source give for Cl.O=C1c2ccccc2CC1(F)CC1CCN(Cc2ccccc2)CC1 (stereo not shown) [Example 54, 1-Benzyl-4-[(2-fluoro-1-indanon)-2-yl]methylpiperidine hydrochloride] here?
**A.** found to have a sigma receptor binding action

**Q.** How did the “sigma receptor binding action” value turn out when COc1ccc2c(c1)CC(F)(CC1CCN(Cc3ccccc3)CC1)C2=O.Cl (stereo not shown) [Example 55, 1-Benzyl-4-[(5-methoxy-2-fluoro-1-indanon)-2-yl]methylpiperidine hydrochloride] was run?
**A.** found to have a sigma receptor binding action

**Q.** With COc1cc2c(cc1OC)C(=O)C(F)(CC1CCN(Cc3ccccc3)CC1)C2.Cl (stereo not shown) [Example 56, 1-Benzyl-4-[(5,6-dimethoxy-2-fluoro-1-indanon)-2-yl]methylpiperidine hydrochloride] as the compound, how does the “sigma receptor binding action” value read?
**A.** found to have a sigma receptor binding action

**Q.** With CCOc1cc2c(cc1OCC)C(=O)C(F)(CC1CCN(Cc3ccccc3)CC1)C2.Cl (stereo not shown) [Example 57, 1-Benzyl-4-[(5,6-diethoxy-2-fluoro-1-indanon)-2-yl]methylpiperidine hydrochloride] as the compound, how does the “sigma receptor binding action” value read?
**A.** found to have a sigma receptor binding action

**Q.** How did the “sigma receptor binding action” value turn out when CCCOc1cc2c(cc1OCCC)C(=O)C(F)(CC1CCN(Cc3ccccc3)CC1)C2.Cl (stereo not shown) [Example 58, 1-Benzyl-4-[[5,6-di(1-propyloxy)-2-fluoro-1-indanon]-2-yl]methylpiperidine hydrochloride] was run?
**A.** found to have a sigma receptor binding action

**Q.** How did the “sigma receptor binding action” value turn out when COc1cc2c(cc1OC)C(=O)C(F)(C1CCN(Cc3ccccc3)CC1)C2.Cl (stereo not shown) [Example 59, 1-Benzyl-4-[(5,6-dimethoxy-2-fluoro-1-indanon)-2-yl]piperidine] was run?
**A.** found to have a sigma receptor binding action

**Q.** For COc1cc2c(cc1OC)C(=O)C(F)(CCC1CCN(Cc3ccccc3)CC1)C2 (stereo not shown) [Example 60, 1-Benzyl-4-[2-[(5,6-dimethoxy-2-fluoro-1-indanon)-2-yl]ethyl]piperidine], which “sigma receptor binding action” value is on record?
**A.** found to have a sigma receptor binding action

**Q.** How did the “sigma receptor binding action” value turn out when COc1cc2c(cc1OC)C(=O)C(F)(CCCC1CCN(Cc3ccccc3)CC1)C2.Cl (stereo not shown) [Example 61, 1-Benzyl-4-[3-[(5,6-dimethoxy-2-fluoro-1-indanon)-2-yl]propyl]piperidinepiperidine hydrochloride] was run?
**A.** found to have a sigma receptor binding action

**Q.** For COc1cc2c(cc1OC)C(=O)C(F)(CC1CCN(Cc3ccccc3F)CC1)C2.Cl (stereo not shown) [Example 62, 1-(2-Fluorobenzyl)-4-[(5,6-dimethoxy-2-fluoro-1-indanon)-2-yl]methylpiperidine hydrochloride], which “sigma receptor binding action” value is on record?
**A.** found to have a sigma receptor binding action

**Q.** For COc1cc2c(cc1OC)C(=O)C(F)(CC1CCN(Cc3cccc(F)c3)CC1)C2.Cl (stereo not shown) [Example 63, 1-(3-Fluorobenzyl)-4-[(5,6-dimethoxy-2-fluoro-1-indanon)-2-yl]methylpiperidine hydrochloride], which “sigma receptor binding action” value is on record?
**A.** found to have a sigma receptor binding action

**Q.** COc1cc2c(cc1OC)C(=O)C(F)(CC1CCN(Cc3ccc(F)cc3)CC1)C2.Cl (stereo not shown) [Example 64, 1-(4-Fluorobenzyl)-4-[(5,6-dimethoxy-2-fluoro-1-indanon)-2-yl]methylpiperidine hydrochloride] was tested. Which “sigma receptor binding action” value did it give?
**A.** found to have a sigma receptor binding action

**Q.** Which “sigma receptor binding action” value does the source give for COc1cc2c(cc1OC)C(=O)C(F)(CC1CCN(Cc3cccc(C)c3)CC1)C2.Cl (stereo not shown) [Example 65, 1-(3-Methylbenzyl)-4-[(5,6-dimethoxy-2-fluoro-1-indanon)-2-yl]methylpiperidine hydrochloride] here?
**A.** found to have a sigma receptor binding action

**Q.** Which “sigma receptor binding action” value does the source give for COc1cc2c(cc1OC)C(=O)C(F)(CC1CCN(CC3CCCCC3)CC1)C2.Cl (stereo not shown) [Example 66, 1-Cyclohexylmethyl-4-[(5,6-dimethoxy-2-fluoro-1-indanon)-2-yl]methylpiperidine hydrochloride] here?
**A.** found to have a sigma receptor binding action
